“Also recorded” adds a separate entry of the source.
Experiments:
ONC-T18 [1] = experiment: 13C labeled oleic acid incorporation into polyunsaturated fatty acids; format: cell-based, Thraustochytrium sp. ONC-T18; conditions: added to culture medium
ONC-T18 [2] = experiment: Fatty acid production antagonist supplementation of ONC-T18 culture, fatty acid profile by FAME GC-FID; format: cell-based, Thraustochytrium sp. ONC-T18
Description: Media containing 25 g/l sea salt and 1 g/l yeast extract was autoclaved at 120° C. for 20 minutes. Sterilized glucose was added to the media at a concentration of 9 g/l. Sethoxydim (Supleco) was dissolved in dimethyl sulfoxide at a concentration of 5 mg/ml was then added to the media at to represent a final concentration of 100 µM. 1 ml of a 24 hour pre-culture of ONC-T 18 that had been cultured in the same media was added. Culturing was carried out in a shaker (130 rpm) for four days at room temperature. After the incubation period, cells were harvested by centrifugation at 4300 rpm for 10 minutes. The cell pellets were then freeze-dried, weighed and the oil was extracted from the cells.
(§1) The lipids were extracted and derivatized to fatty acid methyl esters (FAME) for gas chromatography analysis (GC). Transesterification and extraction was done using 200 mg freeze dried cells, with C19:0 as internal standard, added transesterification reaction mix (methanol:hydrochloric acid:chloroform, 10:1:1) mixed and heated at 90° C. for 2 hours, then allowed to cool at room temperature. FAMEs were extracted by adding 1 ml water, and 2 ml hexane:chloroform (4:1), and allow organic and aqueous phases to separate. The organic layer was extracted and treated with 0.5 g of anhydrous sodium sulfate to remove particulates and residual water. The organic solvents were evaporated under a stream of argon. The FAMEs were re-suspended in 5 ml of iso-octane and analyzed by GC-FID. The percent conversion was calculated by dividing the product produced by the sum of (the product produced plus the substrate added) and then multiplying by 100.
Media containing 6 g/l sea salt, 2 g/l yeast extract, and 8 g/l L-glutamic acid monosodium salt hydrate was autoclaved at 120° C. for 20 minutes. Sterilized D+-glucose was then added to this media at a concentration of 40 g/l. Cerulenin dissolved in ethanol at a concentration of 5 mg/ml was added to 250 ml flask and the solvent was evaporated for 1 hour prior to adding the media to the flask. The amount of cerulenin in the flask represented a final concentration of 20 mg/l. ONC-T18 was then added to the medium from a plate culture and culturing occurred in a shaker (130 rpm) at room temperature for four days. After the incubation period, cells were harvested by centrifugation at 4300 rpm for 10 minutes, washed once with distilled water, and then centrifuged again at 4300 rpm for 10 minutes. The cell pellets were then freeze-dried, weighed and the oil was extracted from the cells.
as §1, with “produced+the” for “produced plus the”
Media containing 6 g/l sea salt, 2 g/l yeast extract, and 8 g/l L-glutamic acid monosodium salt hydrate was autoclaved at 120° C. for 20 minutes. Sterilized D+-glucose wad then added at a concentration of 5 g/l or was not added to the media. Oleic acid was added to the media to represent a final concentration of 2 ml/l. […]

[3] = oleic acid in combination with glucoase
[4] = presence of the antagonist, oleic acid without glucose

^13C labeled oleic acid
fate of 13C carbon from enriched oleic acid (in words) (ONC-T18 [1]): found in subsequent polyunsaturated fatty acids

CCCCCCCC/C=C\CCCCCCCC(=O)O [oleic acid]
DHA accumulated in ONC-T18, change versus control (in words) (ONC-T18 [2]; antagonist added to medium): most of the oleic acid was converted into DHA; also recorded: more DHA content was observed; also recorded: increase in the content and proportion of DHA
EPA in ONC-T18 fatty acid profile, change versus control (in words) (ONC-T18 [2]; antagonist added to medium): elevation of the EPA content; also recorded: elevated level of EPA
adrenic acid, lipid as percentage of total fatty acid (ONC-T18 [2]; [3]): 0.28%
arachidic acid, lipid as percentage of total fatty acid (ONC-T18 [2]; [3]): 0.34%
arachidonic acid, lipid as percentage of total fatty acid (ONC-T18 [2]; [3]): 0.46%
behenic acid, lipid as percentage of total fatty acid (ONC-T18 [2]; [3]): 0.00%
docosadienoic acid, lipid as percentage of total fatty acid (ONC-T18 [2]; [3]): 0.43%
docosahexaenoic acid, lipid as percentage of total fatty acid (ONC-T18 [2]; [3]): 24.65%
docosapentaenoic acid n-3, lipid as percentage of total fatty acid (ONC-T18 [2]; [3]): 0.39%
docosapentaenoic acid n-6, lipid as percentage of total fatty acid (ONC-T18 [2]; [3]): 6.46%
eicosadienoic acid, lipid as percentage of total fatty acid (ONC-T18 [2]; [3]): 0.36%
eicosapentaenoic acid, lipid as percentage of total fatty acid (ONC-T18 [2]; [3]): 2.60%
eicosatetraenoic acid, lipid as percentage of total fatty acid (ONC-T18 [2]; [3]): 0.24%
eicosatrienoic acid, lipid as percentage of total fatty acid (ONC-T18 [2]; [3]): 0.00%
eicosenoic acid, lipid as percentage of total fatty acid (ONC-T18 [2]; [3]): 0.30%
heneicosapentaenoic acid, lipid as percentage of total fatty acid (ONC-T18 [2]; [3]): 0.79%
hexacosanoic acid, lipid as percentage of total fatty acid (ONC-T18 [2]; [3]): 0.00%
homo-gamma-linolenic acid, lipid as percentage of total fatty acid (ONC-T18 [2]; [3]): 0.30%
lignoceric acid, lipid as percentage of total fatty acid (ONC-T18 [2]; [3]): 0.00%
margaric acid, lipid as percentage of total fatty acid (ONC-T18 [2]; [3]): 0.17%
myristic acid, lipid as percentage of total fatty acid (ONC-T18 [2]; [3]): 8.04%
myristoleic acid, lipid as percentage of total fatty acid (ONC-T18 [2]; [3]): 0.00%
nervonic acid, lipid as percentage of total fatty acid (ONC-T18 [2]; [3]): 0.00%
oleic acid, lipid as percentage of total fatty acid (ONC-T18 [2]; [3]): 9.49%
palmitic acid, lipid as percentage of total fatty acid (ONC-T18 [2]; [3]): 33.18%
palmitoleic acid, lipid as percentage of total fatty acid (ONC-T18 [2]; [3]): 4.22%
pentadecanoic acid, lipid as percentage of total fatty acid (ONC-T18 [2]; [3]): 0.73%
pentadecenoic acid, lipid as percentage of total fatty acid (ONC-T18 [2]; [3]): 0.00%
stearic acid, lipid as percentage of total fatty acid (ONC-T18 [2]; [3]): 1.60%
vaccenic acid, lipid as percentage of total fatty acid (ONC-T18 [2]; [3]): 4.45%
adrenic acid, lipid as percentage of total fatty acid (ONC-T18 [2]; [4]): 0.60%
arachidic acid, lipid as percentage of total fatty acid (ONC-T18 [2]; [4]): 0.00%
arachidonic acid, lipid as percentage of total fatty acid (ONC-T18 [2]; [4]): 0.72%
behenic acid, lipid as percentage of total fatty acid (ONC-T18 [2]; [4]): 0.00%
docosadienoic acid, lipid as percentage of total fatty acid (ONC-T18 [2]; [4]): 0.68%
docosahexaenoic acid, lipid as percentage of total fatty acid (ONC-T18 [2]; [4]): 33.16%
docosapentaenoic acid n-3, lipid as percentage of total fatty acid (ONC-T18 [2]; [4]): 0.39%
docosapentaenoic acid n-6, lipid as percentage of total fatty acid (ONC-T18 [2]; [4]): 7.58%
eicosadienoic acid, lipid as percentage of total fatty acid (ONC-T18 [2]; [4]): 0.51%
eicosapentaenoic acid, lipid as percentage of total fatty acid (ONC-T18 [2]; [4]): 5.47%
eicosatetraenoic acid, lipid as percentage of total fatty acid (ONC-T18 [2]; [4]): 0.00%
eicosatrienoic acid, lipid as percentage of total fatty acid (ONC-T18 [2]; [4]): 0.00%
eicosenoic acid, lipid as percentage of total fatty acid (ONC-T18 [2]; [4]): 0.00%
heneicosapentaenoic acid, lipid as percentage of total fatty acid (ONC-T18 [2]; [4]): 0.20%
hexacosanoic acid, lipid as percentage of total fatty acid (ONC-T18 [2]; [4]): 0.00%
homo-gamma-linolenic acid, lipid as percentage of total fatty acid (ONC-T18 [2]; [4]): 0.61%
lignoceric acid, lipid as percentage of total fatty acid (ONC-T18 [2]; [4]): 0.00%
margaric acid, lipid as percentage of total fatty acid (ONC-T18 [2]; [4]): 0.28%
myristic acid, lipid as percentage of total fatty acid (ONC-T18 [2]; [4]): 1.38%
myristoleic acid, lipid as percentage of total fatty acid (ONC-T18 [2]; [4]): 0.00%
nervonic acid, lipid as percentage of total fatty acid (ONC-T18 [2]; [4]): 0.00%
oleic acid, lipid as percentage of total fatty acid (ONC-T18 [2]; [4]): 25.36%
palmitic acid, lipid as percentage of total fatty acid (ONC-T18 [2]; [4]): 16.67%
palmitoleic acid, lipid as percentage of total fatty acid (ONC-T18 [2]; [4]): 1.06%
pentadecanoic acid, lipid as percentage of total fatty acid (ONC-T18 [2]; [4]): 0.49%
pentadecenoic acid, lipid as percentage of total fatty acid (ONC-T18 [2]; [4]): 0.00%
stearic acid, lipid as percentage of total fatty acid (ONC-T18 [2]; [4]): 1.56%
vaccenic acid, lipid as percentage of total fatty acid (ONC-T18 [2]; [4]): 2.68%

— patent US9023616B2, “Oil producing microbes and method of modification thereof” (DSM Nutritional Products AG, priority 2006, dated 2015)
